Measured values: the supplement of paper PMC13380429
± gives the standard deviation of the averaged measurements.

How the values were obtained:
Details in all cases: 72 h
Calu-3 [1] = assay: relative viability EC50 (midpoint between 100% and the lowest measured viability); higher = less toxic
Vero E6 [2] = assay: as above
U2OS [3] = assay: as above
HepG2 [4] = assay: as above
Caco-2 [5] = assay: as above
Calu-3 [6] = assay: drug sensitivity score (DSS) for viability; higher = more toxic; extreme values may be limits of the assay
Vero E6 [7] = assay: as above
U2OS [8] = assay: as above
HepG2 [9] = assay: as above
Caco-2 [10] = assay: as above
Calu-3 [11] = assay: cell viability relative to DMSO; higher = less toxic
Vero E6 [12] = assay: as above
U2OS [13] = assay: as above
HepG2 [14] = assay: as above
Caco-2 [15] = assay: as above

SMILES	relative viability EC50 (Calu-3 [1])	relative viability EC50 (Vero E6 [2])	relative viability EC50 (U2OS [3])	relative viability EC50 (HepG2 [4])	relative viability EC50 (Caco-2 [5])	drug sensitivity score (Calu-3 [6])	drug sensitivity score (Vero E6 [7])	drug sensitivity score (U2OS [8])	drug sensitivity score (HepG2 [9])	drug sensitivity score (Caco-2 [10])	cell viability (Calu-3 [11]; 1 nM)	cell viability (Calu-3 [11]; 10 nM)	cell viability (Calu-3 [11]; 100 nM)	cell viability (Calu-3 [11]; 1000 nM)	cell viability (Calu-3 [11]; 10000 nM)	cell viability (Vero E6 [12]; 1 nM)	cell viability (Vero E6 [12]; 10 nM)	cell viability (Vero E6 [12]; 100 nM)	cell viability (Vero E6 [12]; 1000 nM)	cell viability (Vero E6 [12]; 10000 nM)	cell viability (U2OS [13]; 1 nM)	cell viability (U2OS [13]; 10 nM)	cell viability (U2OS [13]; 100 nM)	cell viability (U2OS [13]; 1000 nM)	cell viability (U2OS [13]; 10000 nM)	cell viability (HepG2 [14]; 1 nM)	cell viability (HepG2 [14]; 10 nM)	cell viability (HepG2 [14]; 100 nM)	cell viability (HepG2 [14]; 1000 nM)	cell viability (HepG2 [14]; 10000 nM)	cell viability (Caco-2 [15]; 1 nM)	cell viability (Caco-2 [15]; 10 nM)	cell viability (Caco-2 [15]; 100 nM)	cell viability (Caco-2 [15]; 1000 nM)	cell viability (Caco-2 [15]; 10000 nM)
Cc1cccc(C(C)c2c[nH]cn2)c1C (stereo not drawn) [medetomidine]	> 10 µM	> 10 µM	> 10 µM	> 10 µM	> 10 µM	0	0	0	0	0	104 ± 2.5%	98.5 ± 14%	103 ± 2.5%	105 ± 11%	95.2 ± 0.57%	95.3 ± 0.57%	97.5 ± 0.99%	92.5 ± 3.8%	99.75 ± 0.071%	101 ± 3.2%	100 ± 2.2%	96.1 ± 0.71%	102 ± 5.5%	94.5 ± 0.42%	97.6 ± 6.1%	92.5 ± 2.5%	106 ± 1.3%	101 ± 2.7%	102 ± 9.6%	111.4 ± 0.14%	97.85 ± 0.35%	88 ± 1.9%	99.2 ± 5.2%	100 ± 3.1%	99.1 ± 1.6%
COC(=O)[C@H](c1ccccc1Cl)N1CCc2sccc2C1 [clopidogrel]	> 10 µM	> 10 µM	> 10 µM	> 10 µM	> 10 µM	0	0	0	0	0	89.9%	104%	96.9%	96.7%	101%	105%	86.7%	104%	104%	108%	94.8%	99.3%	95.8%	102%	97.6%	97.7%	97.7%	98.4%	112%	101%	91.9%	91.8%	95.1%	95%	88.2%
CN1C(C)(C)CCCC1(C)C [pempidine]	> 10 µM	> 10 µM		> 10 µM	> 10 µM	0	0		0.1	0	114%	105%	98.3%	107%	110%	97.4%	100%	95.1%	95.7%	94.4%						96%	103%	98.1%	105%	84.7%	102%	89.1%	95.1%	99.5%	109%
C=CC[N@@+]12CC[C@@]34c5ccccc5N5/C=C6/[C@H]7C[C@H]8[C@@]9(CC[N@@+]8(CC=C)C/C7=C/CO)c7ccccc7N(/C=C(/[C@@H](C[C@@H]31)/C(=C\CO)C2)[C@H]54)[C@@H]69 [alcuronium]	> 10 µM		> 10 µM	> 10 µM	> 10 µM	1		0	0	0	97.8%	103%	91.2%	90.8%	87.8%						102%	99%	101%	99.7%	103%	106%	107%	98.2%	102%	103%	94.9%	99.9%	99.4%	102%	107%
N=C(N)Nc1ccc(Cl)cc1 [4-chlorophenylguanidine]	> 10 µM		> 10 µM	> 10 µM	> 10 µM	0		0	0	0	93%	89.4%	94.6%	91.7%	102%						102%	95.9%	99.7%	96.5%	101%	99.6%	99.2%	107%	115%	93.2%	103%	100%	97%	95.1%	95.6%
CNC(=O)Nc1ccc(-c2nc(N3CC4CCC(C3)O4)c3cnn(C4CCC5(CC4)OCCO5)c3n2)cc1	0.0122 µM	0.109 µM		0.0648 µM	0.0381 µM	25.1	14.1		20.8	19.5	94.2%	67.2%	36.7%	28%	30.7%	94.1%	93%	70.1%	43.8%	36.4%						98.6%	97.6%	47.1%	31.2%	20.8%	111%	85.1%	50.6%	32.3%	33.1%
Oc1ccc(Nc2nc(-c3ccc(Cl)cc3)cs2)cc1 [SKI-II]	> 10 µM	> 10 µM		> 10 µM	> 10 µM	0.5	0		0	0	103%	96.2%	97.8%	90.5%	85.6%	102%	104%	99.2%	107%	97.5%						90.8%	68.7%	106%	81.3%	98%	100%	98.1%	104%	99.9%	90%
C[C@]12CC[C@@H]3c4ccc(O)cc4CC[C@H]3[C@@H]1CC[C@@H]2OC(=O)CCC1CCCC1 [estradiol-cypionate]	> 10 µM		> 10 µM	> 10 µM	> 10 µM	0		0	0	0	82%	90.4%	103%	93%	102%						99.6%	104%	99.2%	100%	96.7%	103%	96.5%	105%	95.8%	98.8%	99.9%	106%	85.4%	97.2%	90%
